From US20200206344A1, “METHODS FOR MODULATING THE INTERACTION BETWEEN EWS-FLI1 AND BAF COMPLEXES” (Dana-Farber Cancer Institute, Inc., priority 2017, published 2020) come the findings set out here.

The test system of data set [1] is EWS-FLI1. Nature of the data set: Biotinylated isoxazole-mediated precipitation. It is filed as biochemical. On the procedure:
(§1) These assays were performed as previously described (Kato et al., 2012) with slight modifications. Biotinylated isoxazole (b-isox, Sigma-Aldrich) was reconstituted in DMSO. Briefly, 5-10 million cells were resuspended in 1 mL lysis buffer (20 mM Tris-HCl pH 7.4, 150 mM NaCl, 5 mM MgCl2, 0.5% NP-40 and 10% glycerol supplemented with 1× Protease/Phosphatase inhibitors (Pierce), 0.1 mM PMSF and 20 mM betamercaptoethanol) and incubated for 30 minutes with rotation at +4° C. Protein supernatant was then collected after centrifugation for 15 min at 14000 rpm+4° C. A 5% whole cell extract (WCE) control was collected and the remaining proteins were divided into four aliquots before addition of biotinylated isoxazole at 0, 10, 30 100 uM final concentrations. 100 μg/mL RNase A (Life Technologies) was used for RNase treatment experiments. The Reaction solutions were incubated at +4° C. for 1 h with rotation and centrifuged for 15 min at 14000 rpm+4° C. Supernatant was saved for further analysis and pellets were washed twice in supplemented Lysis buffer before resuspension in Laemmli buffer. WCE, pellets and supernatants were analyzed by 4%-12% Tris-Glycine gradient gels (Life Technologies) and Western blotting was performed using standard protocols.

The target in data set [2] is T1, wild-type FLI1 (Homo sapiens, UniProt Q01543).
T1 construct: expressed in transfected cells; host or cells: U2OS osteosarcoma cells, lentiviral expression
T1 sequence (Q01543 1-452): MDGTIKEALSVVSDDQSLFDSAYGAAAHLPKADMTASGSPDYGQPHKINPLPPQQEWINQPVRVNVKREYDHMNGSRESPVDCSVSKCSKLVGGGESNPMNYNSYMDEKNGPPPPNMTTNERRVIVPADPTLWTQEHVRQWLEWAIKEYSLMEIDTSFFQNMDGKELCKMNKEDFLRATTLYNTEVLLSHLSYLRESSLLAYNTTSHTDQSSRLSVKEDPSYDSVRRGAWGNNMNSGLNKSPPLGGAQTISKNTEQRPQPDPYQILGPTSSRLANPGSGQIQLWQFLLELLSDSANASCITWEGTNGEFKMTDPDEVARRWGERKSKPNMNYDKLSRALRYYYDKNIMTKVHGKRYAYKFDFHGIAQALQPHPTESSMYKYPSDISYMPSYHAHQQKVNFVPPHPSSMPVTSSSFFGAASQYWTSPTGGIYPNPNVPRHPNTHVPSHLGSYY
Put plainly: Biotinylated isoxazole-mediated precipitation. As to conditions: U2OS osteosarcoma cell lysates. It is filed as biochemical. On the procedure:
as §1

The target of data set [3] is mSWI/SNF (BAF) complexes (human). Put plainly: cell-based or functional assay.
For data set [4], the system named is EWS-FLI1. Nature of the data set: BAF155 ChIP-seq after shRNA knockdown of EWS-FLI1. It counts as cell-based. As to conditions: SK-N-MC cells, versus shGFP.
Target sequence in this assay (as listed by the source): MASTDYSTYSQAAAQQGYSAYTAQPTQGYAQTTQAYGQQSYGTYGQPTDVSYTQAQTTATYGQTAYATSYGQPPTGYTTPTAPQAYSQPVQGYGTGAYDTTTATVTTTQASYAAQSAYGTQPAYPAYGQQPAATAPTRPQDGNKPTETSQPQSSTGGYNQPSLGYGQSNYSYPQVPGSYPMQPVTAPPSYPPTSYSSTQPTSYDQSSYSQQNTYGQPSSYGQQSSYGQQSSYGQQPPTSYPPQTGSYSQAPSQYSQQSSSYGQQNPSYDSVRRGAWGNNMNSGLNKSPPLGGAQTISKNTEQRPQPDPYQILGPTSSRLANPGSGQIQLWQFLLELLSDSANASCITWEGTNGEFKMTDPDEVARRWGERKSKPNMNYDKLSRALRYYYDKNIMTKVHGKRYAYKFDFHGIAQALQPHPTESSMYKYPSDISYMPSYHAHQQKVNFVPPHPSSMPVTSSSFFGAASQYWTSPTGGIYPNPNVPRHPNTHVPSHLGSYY
Data set [5] has as its target mSWI/SNF (BAF) complexes (human). Nature of the data set: partial urea denaturation of nuclear extracts before anti-EWSR1 immunoprecipitation, immunoblot. In general terms: A western blot detects proteins with antibodies after separation by electrophoresis.
Data set [6] deals with T2, EWS(YS37)-FLI1 (human).
T2 construct: EWS-FLI1 with all 37 tyrosines of the prion-like domain changed to serine; also called EWS(Y37)-FLI1; EWS(YS37)-FLI1 mutant protein
T2 chain: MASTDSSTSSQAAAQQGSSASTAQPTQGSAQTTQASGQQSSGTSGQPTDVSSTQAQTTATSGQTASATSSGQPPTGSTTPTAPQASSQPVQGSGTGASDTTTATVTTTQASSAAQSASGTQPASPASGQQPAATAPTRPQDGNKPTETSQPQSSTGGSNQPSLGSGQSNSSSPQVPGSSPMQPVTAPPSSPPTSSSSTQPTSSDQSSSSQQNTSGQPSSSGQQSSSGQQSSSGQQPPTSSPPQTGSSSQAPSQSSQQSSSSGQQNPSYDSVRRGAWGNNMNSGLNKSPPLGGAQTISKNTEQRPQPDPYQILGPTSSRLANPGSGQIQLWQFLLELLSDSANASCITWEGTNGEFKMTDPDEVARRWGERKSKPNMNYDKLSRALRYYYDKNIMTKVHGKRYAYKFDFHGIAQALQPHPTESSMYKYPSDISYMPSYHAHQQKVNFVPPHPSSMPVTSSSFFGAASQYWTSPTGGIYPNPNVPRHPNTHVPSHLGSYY
Put plainly: co-immunoprecipitation with anti-V5 antibodies, HEK-293-T cells co-expressing HA- and V5-tagged proteins.

Take `O=C1N[C@H]2[C@H](CS[C@H]2CCCCC(=O)OCCCCCCNC(=O)c2cc(-c3cccs3)on2)N1` [b-isox, biotinylated isoxazole]: the “precipitation of EWS-FLI1” value in data set [1] (100 uM b-isox, Ewing sarcoma cell lysates) is on record as “precipitates”. Besides, the “precipitation of EWS-FLI1, dose dependence” value in data set [1] (Ewing sarcoma cell lysates, b-isox 0, 10, 30, 100 uM) was “dose-dependent”. The “precipitation of lentivirally expressed EWS-FLI1” value in data set [1] (U2OS osteosarcoma cell lysates) was “precipitates”. Besides, in data set [2], the “precipitation of lentivirally expressed wild-type FLI1” value is reported as “but not wild-type FLI1”.
For the molecule EWS-FLI1 fusion protein, the BAF155 ChIP-seq peak occupancy at EWS-FLI1-bound GGAA repeats, SK-N-MC cells in data set [3] is 2 fold.
With “shEWS-FLI1: shRNA, target FLI1, position 1917, sequence CGTCATGTTCTGGTTTGAGAT”, the “BAF155 occupancy at EWS-FLI1 bound GGAA repeats” value in data set [4] is “decreased specifically at GGAA repeat regions”.
Turning to “wild-type EWSR1 (from UniProt Q01844 1-656)”, the urea concentration at which the interactions were decreased in data set [5] came to 0.5 M.

B1: HA-tagged EWS(YS37)-FLI1 (other, not shown: small tags and cut ends)
chain: T2 chain
notes: also called HA-tagged mutant EWS-FLI1
For B1, in data set [6], the binding result is “binds”.
